The values below come from publication PMC7279046, “Discovery of the Novel Inhibitor Against New Delhi Metallo-β-Lactamase Based on Virtual Screening and Molecular Modelling” (International Journal of Molecular Sciences, 2020).

“Also recorded” adds a separate entry of the source. Like-named read-outs stand apart in the source and are kept apart here.

Assay [1] concerns the target T1, NDM-1 (Klebsiella pneumoniae, UniProt C7C422).
T1 construct: made in house; host or cells: E. coli BL21 (DE3)
The experiment in a line: nitrocefin assay (hydrolysis by purified NDM-1). Type of assay: biochemical. The method, then:
The inhibitory activities of 18 compounds against NDM-1 were tested by nitrocefin assay. The purified NDM-1 was incubated with drugs and nitrocefin, then the absorbance values of OD492nm were determined as the nitrocefin hydrolysis. […]
collected for the subsequent protein purification as described by Liu et.al. […]
further determination of the inhibitory effect of ZINC05683641 on the hydrolysis activities of NDM-1. The initial identifying of NDM-1 inhibitory activities was carried out on the […]
serves as an indicator whose colour changes from yellow to red with increased hydrolysis.
(§1) NDM-1 were incubated with various concentrations of inhibitor (0, 4, 8, 16, 32, 64 μg/mL) in phosphate buffer (pH = 7.4) at room temperature for 20 minutes, and then, 25 μL of nitrocefin was added to the mixture. After 10 minutes of incubation, the samples were read at OD492nm to determine the level of nitrocefin hydrolysis. […]

Assay [2] concerns the target T1, NDM-1. The conditions noted are these: cited from earlier work.
The target of assay [3] is T2, W93A-NDM-1 (Klebsiella pneumoniae, UniProt C7C422, W93A). The assay is described as follows: fluorescence-quenching assay, W93A. Type of assay: binding. The method, then:
(§2) Furthermore, this competitive inhibition mechanism was verified by fluorescence quenching method. In previous literature, fluorescence quenching method are extensively used in the interaction mechanism research between ligand and protein. The binding constants of NDM-1 with ZINC05683641 were measured by fluorescence quenching method in this research. […] It is believed that the 3D structure of NDM-1-ZINC05683641 complex is reliable by MD simulation, and residues of ILE-35, MET-67, VAL-73, TRP-93, CYS-208, ASN-220 and HIS-250 played crucial roles in the binding of ZINC05683641 to NDM-1. […]
(§3) Fluorescence-quenching assay
(§4) According to Dong et al., Niu et al. and Qiu et al., the binding constants (KA) of WT-NDM-1 and two mutants NDM-1 with inhibitor were measured using the fluorescence-quenching […]
(§5) Site-Directed Mutagenesis
(§6) The recombinant plasmid pET28a-NDM-1 was constructed according to previous reports encoding WT-NDM-1. Plasmids encoding W93A-NDM-1 or H250A-NDM-1 were constructed by using a QuikChange site-directed mutagenesis kit. The template plasmid was the pET28a-NDM-1 plasmid, as noted above.
(§7) Expression and puriﬁcation of WT-PLY and mutants
(§8) Plasmids harboring the coding sequences for WT-NDM-1, W93A-NDM-1, and H250A-NDM-1 were transformed into E. coli BL21 (DE3). […]

Assay [4] has as its target T3, H250A-NDM-1 (Klebsiella pneumoniae, UniProt C7C422, H250A). The assay is described as follows: fluorescence-quenching assay, H250A. Type of assay: binding. The method, then: as §2, §3, §4, §5, §6, §7, §8
For assay [5], the target named is T2, W93A-NDM-1. The experiment in a line: nitrocefin assay with mutant W93A. Type of assay: biochemical. The conditions noted are these: 4-64 μg/mL. The protocol: (§9) Subsequently, the inhibitory activity of ZINC05683641 against mutants was tested by the nitrocefin assays. […] The findings indicate that due to the mutation of residues in the binding sites, the binding affinity of ZINC05683641 with NDM-1 decreased, leading to a loss of inhibitory activity. […]
as §5, §6, §7
(§10) Plasmids harboring the coding sequences for WT-NDM-1, W93A-NDM-1, and H250A-NDM-1 were transformed into E. coli BL21 (DE3). The E. coli strain was cultured in 1,000 mL of LB broth supplemented with 50 μg mL–1 kanamycin until the OD 600 nm of the cultures reached 0.6–0.8.
(§11) Protein expression was induced by using 0.3 mM IPTG for 12 h at 16 °C. The cells were harvested and washed once with sterile PBS. […]
as §1

Assay [6] addresses T3, H250A-NDM-1. The experiment in a line: nitrocefin assay with mutant H250A. Format: biochemical. The conditions noted are these: 4-64 μg/mL. The method, then:
as §9, §5, §6, §7, §10, §11, §1

Assay [7] has as its system E. coli BL21 (pET28a-SP-NDM-1). The experiment in a line: antibacterial activity assay (MIC, broth microdilution; FICI). Format: cell-based. The conditions noted are these: for MIC: Escherichia coli; for FICI: FICI ≤ 0.5 denotes synergy.
The target of another assay is T4, WT-NDM-1 (Klebsiella pneumoniae, UniProt C7C422).
T4 construct: made in house; host or cells: E. coli BL21 (DE3)
The assay is described as follows: fluorescence-quenching assay, WT. Type of assay: binding. The protocol:
as §2, §3, §4, §5, §6, §7, §8

The mark [8] stands for this setting: IC50, nitrocefin hydrolysis, OD492nm, mean ± SD, n = 3.
Setting [9] is: IC50 (not available; inhibitory activity at 1 mM), initial test at a concentration of 1 mM.

T2 sequence (C7C422 29-270 W93A): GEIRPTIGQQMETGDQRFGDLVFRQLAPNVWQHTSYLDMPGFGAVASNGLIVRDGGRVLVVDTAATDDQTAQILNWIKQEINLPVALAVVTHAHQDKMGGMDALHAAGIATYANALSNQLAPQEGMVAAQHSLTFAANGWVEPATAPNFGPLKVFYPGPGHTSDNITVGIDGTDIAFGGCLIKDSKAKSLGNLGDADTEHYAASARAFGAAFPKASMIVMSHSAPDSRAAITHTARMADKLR
T3 sequence (C7C422 29-270 H250A): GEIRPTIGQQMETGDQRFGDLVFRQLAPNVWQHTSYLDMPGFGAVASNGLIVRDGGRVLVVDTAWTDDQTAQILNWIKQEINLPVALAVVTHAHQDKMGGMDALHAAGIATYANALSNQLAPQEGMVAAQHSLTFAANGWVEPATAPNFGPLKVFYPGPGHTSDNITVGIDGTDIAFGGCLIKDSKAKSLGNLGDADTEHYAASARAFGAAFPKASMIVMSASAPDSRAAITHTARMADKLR
T1 sequence (C7C422 29-270 limits assumed): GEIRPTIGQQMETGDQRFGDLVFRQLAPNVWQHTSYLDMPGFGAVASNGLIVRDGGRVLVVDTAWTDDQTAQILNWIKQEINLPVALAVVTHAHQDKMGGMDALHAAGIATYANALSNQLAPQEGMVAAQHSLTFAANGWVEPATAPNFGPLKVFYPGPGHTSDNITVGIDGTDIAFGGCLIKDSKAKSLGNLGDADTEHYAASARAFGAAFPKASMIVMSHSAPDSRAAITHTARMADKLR
T4 sequence (C7C422 29-270 limits assumed): as above

As to `Cc1ccc(N2C(=O)c3ccc(C(=O)c4ccc5c(c4)C(=O)N(c4ccc(C)cc4C)C5=O)cc3C2=O)c(C)c1` [ZINC02079077], the IC50 (commonly the concentration at which inhibition is half-maximal) at NDM-1 [1] (setting [8]) stood at 108 ± 5.64 µM.

For the compound `O=C1C(=Cc2cccc(Cl)c2)CN(Cc2ccccc2)CC1=Cc1cccc(Cl)c1` [ZINC20115378], the IC50 on NDM-1 [1] (setting [8]) was > 300 µM.

Turning to `Cc1ccc(C2=NN3[C@@H](C(=O)c4ccc(-c5ccccc5)cc4)Oc4ccc(Cl)cc4[C@H]3C2)cc1` [ZINC25558691], the concentration for half-maximal inhibition (IC50) at NDM-1 [1] (setting [9]) was > 1000 µM.

For the compound `Cc1ccc(-c2cc(C(F)(F)F)c3c(N)c(C(=O)c4ccccc4)sc3n2)cc1` [ZINC06421319], at NDM-1 [1] (setting [9]), the IC50 was > 1000 µM.

For `N[C@H](CN[C@H](CN[C@@H](CC(=O)O)C(=O)O)C(=O)O)C(=O)O` [aspergillomarasmine A], on NDM-1 [2], the IC50 is 4 µM.

On to `O=[N+]([O-])c1cccc(S(=O)(=O)N2CN(c3ccc4ccccc4c3)c3nc4ccccc4nc32)c1` [ZINC12524283], for which the IC50 against NDM-1 [1] (setting [8]) is > 300 µM.

For `O=c1oc2cc(OCc3ccc(Cl)c(Cl)c3)ccc2cc1-c1nc2ccccc2s1` [ZINC01799114], at NDM-1 [1] (setting [8]), the IC50 is > 300 µM.

In the case of `C[C@H]1CCc2cc(F)cc3c(=O)c(C(=O)NCc4ccccc4Cl)c(O)n1c23` [ZINC06166781], the IC50 against NDM-1 [1] (setting [8]) was > 300 µM.

Regarding `COc1ccc2c3c(cccc13)C(=O)N(OS(=O)(=O)c1ccc(C)cc1)C2=O` [ZINC05683641], the Kd (as a rule, the equilibrium constant for the complex coming apart) was 3.28 µM at W93A-NDM-1 [3], 4.65 µM at H250A-NDM-1 [4] and 2.4 µM on WT-NDM-1. Besides, the “binding constant KA” value is on record as 3.05 ± 0.83 1 × 10^5 L mol^−1 at W93A-NDM-1 [3] (W93A, fluorescence spectroscopy quenching, mean ± SD, n = 3) and 2.15 ± 0.88 1 × 10^5 L mol^−1 on H250A-NDM-1 [4] (H250A, fluorescence spectroscopy quenching, mean ± SD, n = 3). For the same compound, the “inhibition of W93A hydrolysis activity” value against W93A-NDM-1 [5] is given as “almost no inhibition; also recorded: did not lead to inhibitory effects”. At H250A-NDM-1 [6], the “inhibition of H250A hydrolysis activity” value is on record as “almost no inhibition; also recorded: did not lead to inhibitory effects”. Further, the MIC – broadly, the least concentration at which growth counts as inhibited – in assay [7] is > 512 µg/mL. In addition, in assay [7] (inhibitor alone, 512 μg/mL), the “inhibition of cell growth” value is on record as “did not inhibit cell growth”. In addition, the IC50 at NDM-1 [1] (setting [8]) was determined as 13.6 ± 0.52 µM. At NDM-1 [1] (final concentrations of 4, 8, 16, 32 and 64 μg/mL), the “hydrolysis activity of nitrocefin by WT-NDM-1” value is on record as “reduced”. Also, the inhibition (usually the share of the control response that was lost under treatment) at 16 µM on NDM-1 [1] (read-out: inhibition rate) is > 50%.

On to `C[C@@H](O)[C@H]1C(=O)N2C(C(=O)O)=C(S[C@@H]3CN[C@H](C(=O)N(C)C)C3)[C@H](C)[C@H]12` [Meropenem], for which the “MIC of meropenem in combination” value in assay [7] (+64 μg/mL ZINC05683641) and in assay [7] (+128 μg/mL ZINC05683641) was 8 µg/mL each time. The MIC in assay [7] worked out at 32 µg/mL. For the same compound, the “reduction of the MICs of meropenem” value in assay [7] (addition of ZINC05683641 at 64 and 128 μg/mL) is reported as “fourfold”. The FICI in assay [7] (meropenem +64 μg/mL ZINC05683641) came out at 0.375; in assay [7] (meropenem +128 μg/mL ZINC05683641), 0.50; in assay [7] (meropenem +128 μg/mL ZINC05683641, listed as meropenem) it was 0.500.

For `O=C1c2cccc3c(Br)ccc(c23)C(=O)N1OS(=O)(=O)c1ccc(Cl)cc1` [ZINC25558273], the IC50 against NDM-1 [1] (setting [8]) is > 300 µM.

In the case of `O=C1c2cccc3cccc(c23)C(=O)N1OS(=O)(=O)c1ccc(Cl)cc1` [ZINC02953923], the half-inhibitory concentration (IC50) against NDM-1 [1] (setting [8]) is > 300 µM.

Turning to `Cc1ccc(-c2cc(C(=O)Oc3ccc([N+](=O)[O-])cc3)c3cc(C)ccc3n2)cc1` [ZINC02577071], the IC50 on NDM-1 [1] (setting [8]) was > 300 µM.

Turning to `O=C(N[C@@H](Cc1ccc2ccccc2c1)C(=O)O)OCC1c2ccccc2-c2ccccc21` [ZINC04218138], the concentration for half-maximal inhibition (IC50) against NDM-1 [1] (setting [9]) was > 1000 µM.

For `Cc1ccc(S(=O)(=O)Nc2cccc3cccc(NS(=O)(=O)c4ccc(C)cc4)c23)cc1` [ZINC03198432], on NDM-1 [1] (setting [8]), the IC50 is > 300 µM.

For `Cc1ccc(S(=O)(=O)N[C@@H](C(=O)Oc2ccc3c4c(c(=O)oc3c2)CCCC4)c2ccccc2)cc1` [ZINC11865709], the IC50 against NDM-1 [1] (setting [8]) is > 300 µM.

Take `Cc1ccc(S(=O)(=O)ON2C(=O)c3cccc4cccc(c34)C2=O)cc1` [ZINC02938448]: the half-inhibitory concentration (IC50) on NDM-1 [1] (setting [8]) was > 300 µM.

Take `Cc1ccccc1S(=O)(=O)ON1C(=O)c2cccc3cc(S(=O)(=O)N(C)C)cc(c23)C1=O` [ZINC25558269]: the IC50 against NDM-1 [1] (setting [9]) was > 1000 µM.

At NDM-1 [1] (setting [8]), `Cc1ccc(N2C(=O)c3ccc(C(=O)c4ccc5c(c4)C(=O)N(c4ccc(C)cc4C)C5=O)cc3C2=O)c(C)c1` [ZINC00639379] gave an IC50 of 207 ± 15.5 µM.
